From PubChem BioAssay (NCI)
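Cultured in 96-well plates, cells were exposed to test compound for 48 hours across five concentrations. At the TGI there is no net growth.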

Assays:
Assay in all cases: NCI-60 cell line screen, 48 h
786-0 renal = system: 786-0 renal
A498 renal = system: A498 renal
A549 NSCLC = system: A549 NSCLC
ACHN renal = system: ACHN renal
BT-549 breast = system: BT-549 breast
CCRF-CEM leukemia = system: CCRF-CEM leukemia
COLO 205 colon = system: COLO 205 colon
DU-145 prostate = system: DU-145 prostate
EKVX NSCLC = system: EKVX NSCLC
HCC-2998 colon = system: HCC-2998 colon
HCT-116 colon = system: HCT-116 colon
HCT-15 colon = system: HCT-15 colon
HL-60(TB) leukemia = system: HL-60(TB) leukemia
HOP-62 NSCLC = system: HOP-62 NSCLC
HOP-92 NSCLC = system: HOP-92 NSCLC
HS 578T breast = system: HS 578T breast
HT29 colon = system: HT29 colon
IGROV1 ovarian = system: IGROV1 ovarian
K-562 leukemia = system: K-562 leukemia
KM12 colon = system: KM12 colon
LOX IMVI melanoma = system: LOX IMVI melanoma
M14 melanoma = system: M14 melanoma
MALME-3M melanoma = system: MALME-3M melanoma
MCF7 breast = system: MCF7 breast
MDA-MB-231 breast = system: MDA-MB-231 breast
MDA-MB-435 = system: MDA-MB-435
MDA-N = system: MDA-N
MOLT-4 leukemia = system: MOLT-4 leukemia
NCI-H226 lung = system: NCI-H226 lung
NCI-H23 lung = system: NCI-H23 lung
NCI-H460 lung = system: NCI-H460 lung
NCI-H522 lung = system: NCI-H522 lung
NCI/ADR-RES ovarian = system: NCI/ADR-RES ovarian
OVCAR-3 ovarian = system: OVCAR-3 ovarian
OVCAR-4 ovarian = system: OVCAR-4 ovarian
OVCAR-8 ovarian = system: OVCAR-8 ovarian
PC-3 prostate = system: PC-3 prostate
RPMI-8226 leukemia = system: RPMI-8226 leukemia
RXF 393 renal = system: RXF 393 renal
SF-268 CNS = system: SF-268 CNS
SF-295 CNS = system: SF-295 CNS
SF-539 CNS = system: SF-539 CNS
SK-MEL-28 melanoma = system: SK-MEL-28 melanoma
SK-OV-3 ovarian = system: SK-OV-3 ovarian
SN12C renal = system: SN12C renal
SNB-75 CNS = system: SNB-75 CNS
SR leukemia = system: SR leukemia
SW-620 colon = system: SW-620 colon
T-47D breast = system: T-47D breast
TK-10 renal = system: TK-10 renal
U251 CNS = system: U251 CNS
UACC-257 melanoma = system: UACC-257 melanoma
UACC-62 melanoma = system: UACC-62 melanoma
UO-31 renal = system: UO-31 renal
CAKI-1 renal = system: CAKI-1 renal
OVCAR-5 ovarian = system: OVCAR-5 ovarian
SK-MEL-2 melanoma = system: SK-MEL-2 melanoma
SK-MEL-5 melanoma = system: SK-MEL-5 melanoma
SNB-19 CNS = system: SNB-19 CNS

[N-]=[N+]=Nc1cc(=O)[nH]nc1-c1ccccc1
TGI (786-0 renal): > 100 µM
TGI (A498 renal): > 100 µM
TGI (A549 NSCLC): > 100 µM
TGI (ACHN renal): > 100 µM
TGI (BT-549 breast): > 100 µM
TGI (CCRF-CEM leukemia): > 100 µM
TGI (COLO 205 colon): > 100 µM
TGI (DU-145 prostate): > 100 µM
TGI (EKVX NSCLC): > 100 µM
TGI (HCC-2998 colon): > 100 µM
TGI (HCT-116 colon): > 100 µM
TGI (HCT-15 colon): > 100 µM
TGI (HL-60(TB) leukemia): > 100 µM
TGI (HOP-62 NSCLC): > 100 µM
TGI (HOP-92 NSCLC): > 100 µM
TGI (HS 578T breast): > 100 µM
TGI (HT29 colon): > 100 µM
TGI (IGROV1 ovarian): > 100 µM
TGI (K-562 leukemia): > 100 µM
TGI (KM12 colon): > 100 µM
TGI (LOX IMVI melanoma): > 100 µM
TGI (M14 melanoma): > 100 µM
TGI (MALME-3M melanoma): > 100 µM
TGI (MCF7 breast): > 100 µM
TGI (MDA-MB-231 breast): > 100 µM
TGI (MDA-MB-435): > 100 µM
TGI (MDA-N): > 100 µM
TGI (MOLT-4 leukemia): > 100 µM
TGI (NCI-H226 lung): > 100 µM
TGI (NCI-H23 lung): > 100 µM
TGI (NCI-H460 lung): > 100 µM
TGI (NCI-H522 lung): > 100 µM
TGI (NCI/ADR-RES ovarian): > 100 µM
TGI (OVCAR-3 ovarian): > 100 µM
TGI (OVCAR-4 ovarian): > 100 µM
TGI (OVCAR-8 ovarian): > 100 µM
TGI (PC-3 prostate): > 100 µM
TGI (RPMI-8226 leukemia): > 100 µM
TGI (RXF 393 renal): > 100 µM
TGI (SF-268 CNS): > 100 µM
TGI (SF-295 CNS): > 100 µM
TGI (SF-539 CNS): > 100 µM
TGI (SK-MEL-28 melanoma): > 100 µM
TGI (SK-OV-3 ovarian): > 100 µM
TGI (SN12C renal): > 100 µM
TGI (SNB-75 CNS): > 100 µM
TGI (SR leukemia): > 100 µM
TGI (SW-620 colon): > 100 µM
TGI (T-47D breast): > 100 µM
TGI (TK-10 renal): > 100 µM
TGI (U251 CNS): > 100 µM
TGI (UACC-257 melanoma): > 100 µM
TGI (UACC-62 melanoma): > 100 µM
TGI (UO-31 renal): > 100 µM

Cc1cn(C2CC(O)C(CO[Si](C)(C)C(C)(C)C)OC2OC(C)C)c(=O)[nH]c1=O (stereo unspecified)
TGI (786-0 renal): 31.6 µM
TGI (A549 NSCLC): > 100 µM
TGI (ACHN renal): > 100 µM
TGI (BT-549 breast): > 100 µM
TGI (CAKI-1 renal): > 100 µM
TGI (CCRF-CEM leukemia): 61.1 µM
TGI (COLO 205 colon): 48.9 µM
TGI (DU-145 prostate): > 100 µM
TGI (EKVX NSCLC): > 100 µM
TGI (HCC-2998 colon): 62.7 µM
TGI (HCT-116 colon): 31.3 µM
TGI (HCT-15 colon): > 100 µM
TGI (HOP-92 NSCLC): 79.4 µM
TGI (HS 578T breast): > 100 µM
TGI (HT29 colon): 44.1 µM
TGI (IGROV1 ovarian): 77 µM
TGI (K-562 leukemia): > 100 µM
TGI (KM12 colon): > 100 µM
TGI (LOX IMVI melanoma): 32.5 µM
TGI (M14 melanoma): 92.5 µM
TGI (MALME-3M melanoma): > 100 µM
TGI (MCF7 breast): 58.3 µM
TGI (MDA-MB-231 breast): > 100 µM
TGI (MDA-MB-435): > 100 µM
TGI (MDA-N): > 100 µM
TGI (NCI-H226 lung): > 100 µM
TGI (NCI-H23 lung): > 100 µM
TGI (NCI-H460 lung): > 100 µM
TGI (NCI-H522 lung): 89 µM
TGI (NCI/ADR-RES ovarian): > 100 µM
TGI (OVCAR-3 ovarian): 46.3 µM
TGI (OVCAR-4 ovarian): > 100 µM
TGI (OVCAR-5 ovarian): > 100 µM
TGI (OVCAR-8 ovarian): 91.8 µM
TGI (PC-3 prostate): > 100 µM
TGI (RPMI-8226 leukemia): 78.2 µM
TGI (RXF 393 renal): 88.7 µM
TGI (SF-268 CNS): > 100 µM
TGI (SF-295 CNS): > 100 µM
TGI (SF-539 CNS): 56.1 µM
TGI (SK-MEL-2 melanoma): > 100 µM
TGI (SK-MEL-28 melanoma): > 100 µM
TGI (SK-MEL-5 melanoma): 93.9 µM
TGI (SN12C renal): > 100 µM
TGI (SNB-19 CNS): > 100 µM
TGI (SNB-75 CNS): > 100 µM
TGI (SR leukemia): 62.4 µM
TGI (SW-620 colon): > 100 µM
TGI (T-47D breast): > 100 µM
TGI (TK-10 renal): > 100 µM
TGI (U251 CNS): > 100 µM
TGI (UACC-257 melanoma): > 100 µM
TGI (UACC-62 melanoma): > 100 µM
TGI (UO-31 renal): > 100 µM

O=C(/C=C/c1ccc(OCc2cccc(Cl)c2)cc1)NO
TGI (786-0 renal): 23.9 µM
TGI (A498 renal): 27.8 µM
TGI (A549 NSCLC): 51.2 µM
TGI (ACHN renal): 23.5 µM
TGI (BT-549 breast): 80.7 µM
TGI (CAKI-1 renal): 34.2 µM
TGI (CCRF-CEM leukemia): 26.6 µM
TGI (COLO 205 colon): 32 µM
TGI (DU-145 prostate): 40.8 µM
TGI (EKVX NSCLC): > 100 µM
TGI (HCC-2998 colon): 31 µM
TGI (HCT-116 colon): 25.8 µM
TGI (HCT-15 colon): 20.8 µM
TGI (HL-60(TB) leukemia): 35.9 µM
TGI (HOP-62 NSCLC): > 100 µM
TGI (HOP-92 NSCLC): 33.8 µM
TGI (HS 578T breast): > 100 µM
TGI (HT29 colon): 28.2 µM
TGI (IGROV1 ovarian): 38 µM
TGI (K-562 leukemia): > 100 µM
TGI (KM12 colon): 43 µM
TGI (LOX IMVI melanoma): 24.4 µM
TGI (M14 melanoma): > 100 µM
TGI (MCF7 breast): > 100 µM
TGI (MDA-MB-231 breast): 44.1 µM
TGI (MDA-MB-435): 53.3 µM
TGI (MDA-N): 44.5 µM
TGI (MOLT-4 leukemia): 18 µM
TGI (NCI-H226 lung): 35.6 µM
TGI (NCI-H23 lung): 26 µM
TGI (NCI-H460 lung): 41.9 µM
TGI (NCI-H522 lung): 49.4 µM
TGI (NCI/ADR-RES ovarian): 23.3 µM
TGI (OVCAR-3 ovarian): > 100 µM
TGI (OVCAR-4 ovarian): 38 µM
TGI (OVCAR-5 ovarian): 71.5 µM
TGI (OVCAR-8 ovarian): 20.3 µM
TGI (PC-3 prostate): 47.4 µM
TGI (RPMI-8226 leukemia): 44.8 µM
TGI (RXF 393 renal): 42.4 µM
TGI (SF-268 CNS): > 100 µM
TGI (SF-295 CNS): 50.1 µM
TGI (SF-539 CNS): > 100 µM
TGI (SK-MEL-2 melanoma): 53.7 µM
TGI (SK-MEL-28 melanoma): > 100 µM
TGI (SK-MEL-5 melanoma): 45.7 µM
TGI (SK-OV-3 ovarian): 49.3 µM
TGI (SN12C renal): 49.4 µM
TGI (SNB-19 CNS): 60.7 µM
TGI (SNB-75 CNS): > 100 µM
TGI (SR leukemia): 11.3 µM
TGI (SW-620 colon): > 100 µM
TGI (T-47D breast): 36.7 µM
TGI (TK-10 renal): 67.1 µM
TGI (U251 CNS): 47.9 µM
TGI (UACC-257 melanoma): > 100 µM
TGI (UACC-62 melanoma): 27.9 µM
TGI (UO-31 renal): 18.7 µM
